Measured values published in the supplement of paper PMC8612539.
In brackets after ≈: the same amount, converted by molar mass.

Tested on: Pasteurella multocida
Experiment: minimum inhibitory concentration (MIC)
Protocol: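 Broth microdilution MIC (Sensititre BOPO7F bovine plate, CLSI methods) of 19 antimicrobials against field isolates of P. multocida, M. haemolytica, H. somni (deep nasopharyngeal swabs) and E. coli, Enterococcus spp. (rectal swabs) from weaned dairy heifers. Incubation 16-24 h at 35 C. MIC is the lowest concentration preventing visible growth. Values with <= or > lie at the tested range limits. Trimethoprim-sulfamethoxazole is given as the trimethoprim component of a 1:19 mixture.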

CCCN1C[C@H](C)[C@@H](O)[C@](C)(O)[C@@H](CC)OC(=O)[C@H](C)[C@@H](O[C@H]2C[C@@](C)(OC)[C@@H](O)[C@H](C)O2)[C@H](C)[C@@H](O[C@@H]2O[C@H](C)C[C@H](N(C)C)[C@H]2O)[C@](C)(O)C[C@H]1C [Gamithromycin]
Conditions | minimum inhibitory concentration [µg/mL]
isolate (source animal id): 10 | 8 (≈ 10.3 µM)
isolate (source animal id): 11 | 8 (≈ 10.3 µM)
isolate (source animal id): 12 | 8 (≈ 10.3 µM)
isolate (source animal id): 19 | 8 (≈ 10.3 µM)
isolate (source animal id): 23 | 4 (≈ 5.15 µM)
isolate (source animal id): 26 | 4 (≈ 5.15 µM)
isolate (source animal id): 98 | 8 (≈ 10.3 µM)
isolate (source animal id): 104 | > 8
isolate (source animal id): 115 | > 8
isolate (source animal id): 117 | 8 (≈ 10.3 µM)
isolate (source animal id): 118 | 8 (≈ 10.3 µM)
isolate (source animal id): 121 | > 8
isolate (source animal id): 124 | 8 (≈ 10.3 µM)
isolate (source animal id): 125 | 8 (≈ 10.3 µM)
isolate (source animal id): 128 | > 8
isolate (source animal id): 131 | > 8
isolate (source animal id): 135 | > 8
isolate (source animal id): 136 | > 8
isolate (source animal id): 140 | > 8
isolate (source animal id): 144 | 8 (≈ 10.3 µM)
isolate (source animal id): 146 | 8 (≈ 10.3 µM)
isolate (source animal id): 150 | > 8
isolate (source animal id): 151 | > 8
isolate (source animal id): 153 | > 8
isolate (source animal id): 155 | 8 (≈ 10.3 µM)
isolate (source animal id): 157 | 4 (≈ 5.15 µM)
isolate (source animal id): 160 | > 8
isolate (source animal id): 164 | > 8
isolate (source animal id): 165 | > 8
isolate (source animal id): 167 | ≤ 1
isolate (source animal id): 168 | 8 (≈ 10.3 µM)
isolate (source animal id): 169 | ≤ 1
isolate (source animal id): 170 | 2 (≈ 2.57 µM)
isolate (source animal id): 171 | ≤ 1
isolate (source animal id): 172 | ≤ 1
isolate (source animal id): 173 | > 8
isolate (source animal id): 174 | ≤ 1
isolate (source animal id): 175 | ≤ 1
isolate (source animal id): 176 | ≤ 1
isolate (source animal id): 177 | ≤ 1
isolate (source animal id): 178 | ≤ 1
isolate (source animal id): 179 | ≤ 1
isolate (source animal id): 182 | 4 (≈ 5.15 µM)
isolate (source animal id): 192 | ≤ 1
isolate (source animal id): 193 | ≤ 1
isolate (source animal id): 195 | 2 (≈ 2.57 µM)
isolate (source animal id): 196 | ≤ 1
isolate (source animal id): 197 | 2 (≈ 2.57 µM)
isolate (source animal id): 198 | > 8
isolate (source animal id): 199 | ≤ 1
isolate (source animal id): 200 | ≤ 1
isolate (source animal id): 201 | ≤ 1
isolate (source animal id): 203 | ≤ 1
isolate (source animal id): 204 | ≤ 1
isolate (source animal id): 205 | > 8
isolate (source animal id): 206 | ≤ 1
isolate (source animal id): 207 | ≤ 1
isolate (source animal id): 208 | ≤ 1
isolate (source animal id): 209 | ≤ 1
isolate (source animal id): 210 | > 8
isolate (source animal id): 213 | ≤ 1
isolate (source animal id): 216 | ≤ 1
isolate (source animal id): 223 | 8 (≈ 10.3 µM)
isolate (source animal id): 227 | ≤ 1
isolate (source animal id): 229 | 8 (≈ 10.3 µM)
isolate (source animal id): 233 | 8 (≈ 10.3 µM)
isolate (source animal id): 234 | 8 (≈ 10.3 µM)
isolate (source animal id): 237 | 8 (≈ 10.3 µM)
isolate (source animal id): 241 | 8 (≈ 10.3 µM)
isolate (source animal id): 245 | 8 (≈ 10.3 µM)
isolate (source animal id): 247 | 8 (≈ 10.3 µM)
isolate (source animal id): 250 | 8 (≈ 10.3 µM)
isolate (source animal id): 254 | 8 (≈ 10.3 µM)
isolate (source animal id): 255 | 8 (≈ 10.3 µM)
isolate (source animal id): 258 | ≤ 1
isolate (source animal id): 261 | 8 (≈ 10.3 µM)
isolate (source animal id): 262 | 8 (≈ 10.3 µM)
isolate (source animal id): 269 | ≤ 1
isolate (source animal id): 270 | 8 (≈ 10.3 µM)
isolate (source animal id): 274 | 8 (≈ 10.3 µM)
isolate (source animal id): 275 | 8 (≈ 10.3 µM)
isolate (source animal id): 276 | 8 (≈ 10.3 µM)
isolate (source animal id): 277 | ≤ 1
isolate (source animal id): 278 | 8 (≈ 10.3 µM)
isolate (source animal id): 279 | 8 (≈ 10.3 µM)
isolate (source animal id): 280 | > 8
isolate (source animal id): 284 | > 8
isolate (source animal id): 285 | > 8
isolate (source animal id): 287 | 8 (≈ 10.3 µM)
isolate (source animal id): 290 | 8 (≈ 10.3 µM)
isolate (source animal id): 294 | 8 (≈ 10.3 µM)
isolate (source animal id): 295 | > 8
isolate (source animal id): 296 | 8 (≈ 10.3 µM)
isolate (source animal id): 307 | 8 (≈ 10.3 µM)
isolate (source animal id): 310 | 8 (≈ 10.3 µM)
isolate (source animal id): 311 | 8 (≈ 10.3 µM)
isolate (source animal id): 312 | > 8
isolate (source animal id): 313 | > 8
isolate (source animal id): 315 | > 8
isolate (source animal id): 316 | > 8
